Test results: patent US20060093617A1, “Peptides for inducing a CTL and/or HTL response to hepatitis C virus” (Innogenetics, N.V., priority 2004, published 2006)
Where a SMILES comes first, the peptide text is derived from it.

How the values were obtained:
Experiment in all cases: Competition binding assay using soluble HLA class II
[1] = molecular target: T1, DRB1*0101 (Homo sapiens, UniProt P01903+P01911, A100R/D57E/F55L/F60I/F76Y/I96L/L162R/M171V/P40L/Q125E/R42F/V115G/Y59C)
T1 construct: endogenous in cells; host or cells: cell lysate

[2] = molecular target: T2, DRB1*0401 (Homo sapiens, UniProt P01903+P01911, A100K/A169T/F76Y/I96L/K127E/L162R/M171V/N62H/P40V/Q125Y/R42H/S133A/S149N/S66Y/V115G/V209L/W38E); details: HLA-DRB1*0401; individual experiment or mean of several
T2 construct: endogenous in cells; host or cells: cell lysate

[3] = molecular target: T3, DRB1*0301 (Homo sapiens, UniProt P01903+P01911, A100K/A102G/A103R/A169T/F55Y/I96L/K41T/L162R/M171V/P40S/Q125H/Q178H/Q39Y/R42S/S66N/T106N/T262R/W38E/Y61H)
T3 construct: endogenous in cells; HLA-DR was extracted from cell lysates on an LB3.1 antibody column

Compound: CC(C)C[C@H](NC(=O)[C@@H](NC(=O)[C@@H](NC(=O)[C@@H](N)CC(C)C)C(C)C)C(C)C)C(=O)N[C@@H](C)C(=O)N[C@H](C(=O)N[C@@H](C)C(=O)N[C@H](C(=O)N1CCC[C@H]1C(=O)N1CCC[C@H]1C(=O)NCC(=O)N[C@@H](CO)C(=O)N[C@H](C(=O)N[C@H](C(=O)N[C@H](C(=O)O)C(C)C)[C@@H](C)O)C(C)C)[C@@H](C)O)[C@@H](C)O (H-LVVLATATPPGSVTV-OH; N-terminus and C-terminus assumed)
- IC50 [1]: 73 nM
- IC50 [2]: 4 nM
- IC50 [3]: 4.23 µM
